From EP4640052A1 (BASF SE, priority 2024, dated 2025)
Values joined by “and” are separate entries in the source; they are usually repeats but may differ in a detail not shown here. Equal values may be shown once.

Legend:
[1] = system: Blumeria graminis f. sp. tritici; experiment: Green house use example 11: control of powdery mildew on wheat, sprayed 2 days after inoculation (ERYSGT K2); type: in vivo; conditions: G143A strain, single active, 63 ppm
[2] = system: Alternaria solani (ALTESO); experiment: microbe, parasite or virus in culture; type: cell-based
Monilinia sp. (MONISP) = experiment: microbe, parasite or virus in culture; type: cell-based
[3] = system: Septoria tritici (SEPTTR); experiment: microbe, parasite or virus in culture; type: cell-based; conditions: for inhibition of growth at 0.063 ppm / inhibition of growth at 0.25 ppm / inhibition of growth at 1 ppm: Zymoseptoria tritici, 168 h, read-out: Observed efficacy
Phakopsora pachyrhizi [4] = experiment: Green house use example 13: curative control of soybean rust on soybeans (PHAKPA F129L K4); type: in vivo
[5] = system: Sclerotinia sclerotiorum (SCLESC); experiment: microbe, parasite or virus in culture; type: cell-based; conditions: for inhibition of growth at 0.063 ppm: Sclerotinia sclerotiorum, 168 h, read-out: Observed efficacy
[6] = system: Pyricularia oryzae (PYRIOR); experiment: microbe, parasite or virus in culture; type: cell-based; conditions: for Observed efficacy: single active
Phakopsora pachyrhizi [7] = experiment: Green house use example 14: protective control of soybean rust on soybeans (PHAKPA F129L P2); type: in vivo; conditions: single compound
[8] = system: Pyrenophora teres (PYRNTE), Qol resistant (F129L); experiment: microbe, parasite or virus in culture; type: cell-based
[9] = system: Puccinia triticina (syn. P. recondita); experiment: Green house use example 9: curative control of brown rust on wheat (PUCCRT K4); type: in vivo
[10] = system: Puccinia triticina (syn. P. recondita); experiment: Green house use example 10: preventative control of brown rust on wheat (PUCCRT P10); type: in vivo; conditions: 1 ppm
[11] = Alternaria solani, 168 h, read-out: Observed efficacy
[12] = Monilinia, 168 h, read-out: Observed efficacy
[13] = Trial 1, single compound, 4 ppm
[14] = Pyricularia oryzae, 168 h, read-out: Observed efficacy
[15] = Pyrenophora teres, 168 h, read-out: Observed efficacy
[16] = Trial 2, single compound, 2 ppm

Compound: CO/C=C(/C(=O)OC)c1cccc(Br)c1CO/N=C(\COC)c1c(F)cc(F)cc1F [I.11, Methyl (E)-2-[3-bromo-2-[[(Z)-[2-methoxy-1-(2,4,6-trifluorophenyl)ethylidene]-amino]oxymethyl]phenyl]-3-methoxy-prop-2-enoate]
- Observed efficacy [1]: 14
- inhibition of growth at 0.063 ppm [2, 11]: 0%
- inhibition of growth at 0.25 ppm [2, 11]: 0%
- inhibition of growth at 0.001 ppm (Monilinia sp. (MONISP); [12]): 0%
- inhibition of growth at 0.004 ppm (Monilinia sp. (MONISP); [12]): 17%
- inhibition of growth at 0.063 ppm [3]: 0%
- inhibition of growth at 0.25 ppm [3]: 14%
- inhibition of growth at 1 ppm [3]: 70%
- Observed efficacy (Phakopsora pachyrhizi [4]; [13]): 12
- Observed efficacy (Phakopsora pachyrhizi [4]; Trial 3, single compound, 4 ppm): 12
- inhibition of growth at 0.063 ppm [5]: 2%
- inhibition of growth at 0.063 ppm [6, 14]: 34%
- Observed efficacy (Phakopsora pachyrhizi [7]; 0.5 ppm): 59
- inhibition of growth at 0.016 ppm [8, 15]: 6%
- inhibition of growth at 0.063 ppm [8, 15]: 44%
- inhibition of growth at 0.25 ppm [8, 15]: 71%
- Observed efficacy ([9]; Trial 1, single compound, 1 ppm): 1
- Observed efficacy [9, 13]: 14
- Observed efficacy ([9]; Trial 2, single compound, 1 ppm): 0
- Observed efficacy [9, 16]: 0

Compound: N#Cc1c[nH]cc1-c1cccc2c1OC(F)(F)O2 [fludioxonil, reference compound]
- inhibition of growth at 0.016 ppm [2, 11]: 5%
- inhibition of growth at 0.063 ppm [2, 11]: 29%
- inhibition of growth at 0.004 ppm (Monilinia sp. (MONISP); [12]): 8%
- inhibition of growth at 0.063 ppm [3]: 5%
- inhibition of growth at 0.25 ppm [3]: 5%
- inhibition of growth at 1 ppm [3]: 0%
- inhibition of growth at 0.063 ppm [5]: 67%
- inhibition of growth at 0.004 ppm [6, 14]: 8%
- inhibition of growth at 0.016 ppm [6, 14]: 35%
- inhibition of growth at 0.063 ppm [6, 14]: 59%
- inhibition of growth at 0.25 ppm [6, 14]: 59%
- inhibition of growth at 0.063 ppm [8, 15]: 51%

Compound: O=C(Nc1ccccc1F)c1ccc(-c2noc(C(F)(F)F)n2)cc1 [flufenoxadiazam, reference compound]
- Observed efficacy [3]: 2 and 3
- Observed efficacy (Phakopsora pachyrhizi [4]; Trial 1, single compound, 2 ppm): 15
- Observed efficacy (Phakopsora pachyrhizi [4]; [13]): 31
- Observed efficacy (Phakopsora pachyrhizi [4]; [16]): 17
- Observed efficacy (Phakopsora pachyrhizi [4]; Trial 2, single compound, 4 ppm): 34
- Observed efficacy ([6]; 0.004 ppm): 2%
- Observed efficacy (Phakopsora pachyrhizi [7]; 0.5 ppm): 0
- Observed efficacy (Phakopsora pachyrhizi [7]; 2 ppm): 63
- Observed efficacy [8]: 5

Compound: Cn1cc(C(=O)Nc2ccccc2-c2cc(F)c(F)c(F)c2)c(C(F)F)n1 [fluxapyroxad, reference compound]
- Observed efficacy [10]: 42
- Observed efficacy ([6]; 1 ppm): 19%
- Observed efficacy ([9]; 1 ppm): 20
- Observed efficacy ([9]; 2 ppm): 67

Compound: Cc1cccc(-n2nnn(C)c2=O)c1COc1ccn(-c2ccc(Cl)cc2)n1 [metyltetraprole, reference compound]
- Observed efficacy [2]: 22
- Observed efficacy (Monilinia sp. (MONISP)): 17
- Observed efficacy ([6]; 0.016 ppm): 30%
- Observed efficacy ([6]; 0.063 ppm): 70%

Compound: OC(Cc1ccccc1Cl)(Cn1nc[nH]c1=S)C1(Cl)CC1 (stereo not shown) [prothioconazole, reference compound]
- inhibition of growth at 0.25 ppm [2, 11]: 10%
- inhibition of growth at 1 ppm [2, 11]: 14%
- inhibition of growth at 0.004 ppm (Monilinia sp. (MONISP); [12]): 19%
- inhibition of growth at 0.063 ppm [3]: 5%
- inhibition of growth at 0.25 ppm [3]: 67%
- inhibition of growth at 0.25 ppm [6, 14]: 1%
- inhibition of growth at 1 ppm [6, 14]: 12%

Compound: mancozeb [reference compound]
- Observed efficacy [3]: 18 and 19 and 13
- Observed efficacy [5]: 59
- Observed efficacy ([6]; 0.004 ppm): 11%
- Observed efficacy ([6]; 0.016 ppm): 34%
- Observed efficacy ([6]; 0.063 ppm): 54%
- Observed efficacy [8]: 59

Compound: metarylpicoxamid
- Observed efficacy (Phakopsora pachyrhizi [4]; Trial 3, single compound, 1 ppm): 20
- Observed efficacy (Phakopsora pachyrhizi [4]; Trial 3, single compound, 2 ppm): 66
